Counter-ions that a name gives are not always drawn.
Key:
[1] = target: T1, CDK4 (Homo sapiens, UniProt P11802); experiment: Lance TR-FRET kinase assay, CDK4; assay type: biochemical; settings: ATP 100 μM, 60 min, read-out: CDK 4 inhibitory activity (IC50)
T1 construct: purchased ThermoFisher (Waltham, Mass.)
Protocol: (§1) Inhibitory activity of compounds against CDK1/2/4/5/6/7 was assessed using Lance TR-FRET assay kits from Perkin Elmer Life Sciences (Waltham, Mass.). CDK1/2/4/5/6/7 enzymes were purchased from ThermoFisher (Waltham, Mass.). […] Final concentrations of substrates and DMSO were 100 nM and 0.5%, respectively. Concentrations of ATP and different CDK enzymes were adjusted accordingly to achieve optimal enzymatic activities. Final CDK concentrations were 100, 500, 600, 100, 50, and 200 ng/well and ATP concentrations were 30, 50, 100, 20, 100, and 50 μM for CDK1/2/4/5/6/7, respectively. Assay plates were covered to protect from light and spun for 1 min at 700 RPM. Reactions were allowed to perform for 60 minutes in dark with gentle shaking at room temperature after which 5 μL of 40 mM EDTA in detection buffer was added to stop reactions followed 5 μL of the Eu labeled antibodies giving final concentrations of 2 nM to detect the phosphorylation of the peptide substrates. […] The percent of inhibition was calculated from the means of data points using the formula: 100−(Signalcompound−NoSignalbackground)*100/(Signalvehicle−NoSignalbackground). The IC50s were determined with GraphPad Prism by the non-linear sigmoidal curve fitting of data from 10 doses.

[2] = target: T2, CDK9/cyclin T1 (Homo sapiens, UniProt P50750); experiment: LanthaScreen Eu kinase binding assay, CDK9; settings: tracer 236 displacement, CDK9/cyclin T1 5 nM, 1 hour; read-out: CDK 9 inhibitory activity (IC50)
T2 construct: purchased ThermoFisher (Waltham, Mass.)
T2 sequence (P50750 whole entry): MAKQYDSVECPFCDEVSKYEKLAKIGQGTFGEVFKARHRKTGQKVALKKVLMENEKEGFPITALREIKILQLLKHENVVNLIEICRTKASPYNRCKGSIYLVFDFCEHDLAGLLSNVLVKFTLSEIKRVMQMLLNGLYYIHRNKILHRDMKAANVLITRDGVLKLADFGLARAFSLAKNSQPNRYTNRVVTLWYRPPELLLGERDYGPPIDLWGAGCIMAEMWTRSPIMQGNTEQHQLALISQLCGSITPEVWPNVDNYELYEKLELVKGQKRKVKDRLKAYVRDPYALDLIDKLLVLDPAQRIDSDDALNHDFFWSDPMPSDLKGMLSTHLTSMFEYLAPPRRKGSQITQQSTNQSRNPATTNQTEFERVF
T2 sequence (O60563 whole entry partner): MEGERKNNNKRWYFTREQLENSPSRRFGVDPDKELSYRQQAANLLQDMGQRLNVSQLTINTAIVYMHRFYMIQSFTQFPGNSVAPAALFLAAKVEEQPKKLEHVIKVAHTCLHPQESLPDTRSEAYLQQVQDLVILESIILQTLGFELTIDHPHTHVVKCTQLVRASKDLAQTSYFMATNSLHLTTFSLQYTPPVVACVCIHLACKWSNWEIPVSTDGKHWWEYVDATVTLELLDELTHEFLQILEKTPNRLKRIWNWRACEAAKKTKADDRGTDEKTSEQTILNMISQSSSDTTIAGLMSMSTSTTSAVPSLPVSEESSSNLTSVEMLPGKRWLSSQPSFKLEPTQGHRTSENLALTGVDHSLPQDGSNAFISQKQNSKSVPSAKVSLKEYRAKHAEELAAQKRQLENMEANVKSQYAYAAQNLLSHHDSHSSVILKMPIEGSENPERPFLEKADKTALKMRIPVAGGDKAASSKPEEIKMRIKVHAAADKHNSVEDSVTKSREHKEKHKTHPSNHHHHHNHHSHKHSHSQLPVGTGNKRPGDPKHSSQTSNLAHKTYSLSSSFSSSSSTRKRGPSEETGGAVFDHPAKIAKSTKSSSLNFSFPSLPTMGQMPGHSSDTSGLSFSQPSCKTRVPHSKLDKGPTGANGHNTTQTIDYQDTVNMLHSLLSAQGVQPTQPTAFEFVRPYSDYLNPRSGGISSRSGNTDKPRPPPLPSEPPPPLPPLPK
Protocol: (§2) Time Resolved-Fluorescent Resonance Energy Transfer (TR-FRET) was used to determine inhibitory ability of compounds A1˜A19, B1s and B1˜B12 against the enzymatic activity of CDK1, CDK2, CDK4, CDK5, CDK6, CDK7, and CDK9.
The CDK9 kinase inhibitory activity of compounds was tested in the LanthaScreen Eu kinase binding assay from ThermoFisher. LanthaScreen® Eu Kinase binding assays are based on the binding and displacement of a proprietary, Alexa Fluor® 647-labeled, ATP-competitive kinase inhibitor scaffold (kinase tracer) to CDK9. CDK9/cyclin T1, Kinase tracer 236 and LanthaScreen® Eu-anti-His Antibody were purchased form ThermoFisher (Waltham, Mass.). 5 μL of CDK9/cyclin T1 (final 5 nM)/antibody (final 2 nM) mixture, 5 μL of compound in kinase buffer, and 5 μL of tracer (final 30 nM) were added to wells of a white OptiPlate-384 plate in this specific order. Assay plates were covered to protect from light, spun for 1 min at 700 RPM and incubated at room temperature for 1 hour. Assay plates were read with the EnVision™ Multilabel Reader in TR-FRET mode (excitation at 320 nm and emission at 665 nm). The percent of inhibition was calculated from the means of data points using the formula: 100−(Signalcompound−NoSignalbackgound)*100/(Signalvehicle−NoSignalbackground). The IC50s were determined with GraphPad Prism by the non-linear sigmoidal curve fitting of data from 10 doses.

[3] = target: T3, CDK6 (Homo sapiens, UniProt Q00534); experiment: Lance TR-FRET kinase assay, CDK6; assay type: biochemical
T3 construct: purchased ThermoFisher (Waltham, Mass.)
T3 sequence (Q00534 whole entry): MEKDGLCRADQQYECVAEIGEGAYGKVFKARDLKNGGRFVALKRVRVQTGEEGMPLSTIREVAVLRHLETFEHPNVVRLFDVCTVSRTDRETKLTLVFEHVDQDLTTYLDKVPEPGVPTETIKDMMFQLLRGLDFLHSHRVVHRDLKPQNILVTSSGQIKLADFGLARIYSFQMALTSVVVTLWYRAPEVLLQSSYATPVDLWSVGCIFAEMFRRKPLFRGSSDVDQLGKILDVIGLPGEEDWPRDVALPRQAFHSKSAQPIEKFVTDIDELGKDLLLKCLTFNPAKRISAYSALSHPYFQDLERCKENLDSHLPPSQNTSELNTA
T3 sequence (P24385 whole entry partner): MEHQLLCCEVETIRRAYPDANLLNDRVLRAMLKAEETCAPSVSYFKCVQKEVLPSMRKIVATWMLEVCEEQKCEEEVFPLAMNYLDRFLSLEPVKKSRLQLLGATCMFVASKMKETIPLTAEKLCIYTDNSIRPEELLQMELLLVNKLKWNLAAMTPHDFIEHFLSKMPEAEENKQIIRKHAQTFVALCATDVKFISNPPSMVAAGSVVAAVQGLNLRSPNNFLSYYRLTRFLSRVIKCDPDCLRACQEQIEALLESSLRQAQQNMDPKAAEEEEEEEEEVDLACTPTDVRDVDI
Protocol: as §2
(§3) Inhibitory activity of compounds against CDK1/2/4/5/6/7 was assessed using Lance TR-FRET assay kits from Perkin Elmer Life Sciences (Waltham, Mass.). CDK1/2/4/5/6/7 enzymes were purchased from ThermoFisher (Waltham, Mass.). 2.5 μL of compound solutions and 2.5 μL of enzyme solutions in kinase assay buffer, which was 50 mM HEPES (pH 7.5) with 1 mM EGTA, 1 mM MgCl2, 2 mM DTT, and 0.01% Tween-20, were added into a white OptiPlate-384 plate followed by adding 5 μL of fluorescently labeled peptide substrates (Ulight-4E-BP1 for CDK4/6 and Ulight-MBP for […]) and ATP mixture solutions. Final concentrations of substrates and DMSO were 100 nM and 0.5%, respectively. Concentrations of ATP and different CDK enzymes were adjusted accordingly to achieve optimal enzymatic activities. Final CDK concentrations were 100, 500, 600, 100, 50, and 200 ng/well and ATP concentrations were 30, 50, 100, 20, 100, and 50 μM for CDK1/2/4/5/6/7, respectively. Assay plates were covered to protect from light and spun for 1 min at 700 RPM. Reactions were allowed to perform for 60 minutes in dark with gentle shaking at room temperature after which 5 μL of 40 mM EDTA in detection buffer was added to stop reactions followed 5 μL of the Eu labeled antibodies giving final concentrations of 2 nM to detect the phosphorylation of the peptide substrates. Assay plates were read with the EnVision™ Multilabel Reader in TR-FRET mode (excitation at 320 nm and emission at 665 nm). The percent of inhibition was calculated from the means of data points using the formula: 100−(Signalcompound−NoSignalbackground)*100/(Signalvehicle−NoSignalbackground). The IC50s were determined with GraphPad Prism by the non-linear sigmoidal curve fitting of data from 10 doses.

[4] = target: T4, CDK2 (Homo sapiens, UniProt P24941); experiment: Lance TR-FRET kinase assay, CDK2; assay type: biochemical; settings: ATP 50 μM, 60 min, read-out: CDK 2 inhibitory activity (IC50)
T4 construct: purchased ThermoFisher (Waltham, Mass.)
Protocol: as §2, §3

[5] = target: T5, CDK1 (Homo sapiens, UniProt P06493); experiment: Lance TR-FRET kinase assay, CDK1; assay type: biochemical; settings: ATP 30 μM, 60 min, read-out: CDK 1 inhibitory activity (IC50)
T5 construct: purchased ThermoFisher (Waltham, Mass.)
T5 sequence (P06493 whole entry): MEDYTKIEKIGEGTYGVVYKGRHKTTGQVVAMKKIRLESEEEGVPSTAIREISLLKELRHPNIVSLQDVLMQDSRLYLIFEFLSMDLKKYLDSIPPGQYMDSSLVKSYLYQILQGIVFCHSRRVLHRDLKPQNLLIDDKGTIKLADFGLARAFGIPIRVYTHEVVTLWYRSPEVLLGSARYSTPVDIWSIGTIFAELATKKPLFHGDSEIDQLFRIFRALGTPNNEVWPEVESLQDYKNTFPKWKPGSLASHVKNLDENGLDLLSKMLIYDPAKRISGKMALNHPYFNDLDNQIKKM
T5 sequence (P14635 whole entry partner): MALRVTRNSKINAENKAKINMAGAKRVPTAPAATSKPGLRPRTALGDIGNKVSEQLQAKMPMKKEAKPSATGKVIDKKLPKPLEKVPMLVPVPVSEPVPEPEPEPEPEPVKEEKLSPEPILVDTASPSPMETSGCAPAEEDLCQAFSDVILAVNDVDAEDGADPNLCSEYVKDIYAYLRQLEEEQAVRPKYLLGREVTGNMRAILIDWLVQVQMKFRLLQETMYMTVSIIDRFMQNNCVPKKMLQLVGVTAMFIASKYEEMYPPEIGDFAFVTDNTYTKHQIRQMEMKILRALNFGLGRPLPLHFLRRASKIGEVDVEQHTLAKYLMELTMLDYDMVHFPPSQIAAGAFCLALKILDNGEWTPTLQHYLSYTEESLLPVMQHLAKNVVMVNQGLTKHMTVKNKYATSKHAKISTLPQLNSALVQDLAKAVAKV
Protocol: as §2, §3

[6] = target: T6, CDK7 (Homo sapiens, UniProt P50613); experiment: Lance TR-FRET kinase assay, CDK7; assay type: biochemical; settings: ATP 50 μM, 60 min; for IC50: read-out: CDK 7 inhibitory activity (IC50)
T6 construct: purchased ThermoFisher (Waltham, Mass.)
T6 sequence (P50613 whole entry): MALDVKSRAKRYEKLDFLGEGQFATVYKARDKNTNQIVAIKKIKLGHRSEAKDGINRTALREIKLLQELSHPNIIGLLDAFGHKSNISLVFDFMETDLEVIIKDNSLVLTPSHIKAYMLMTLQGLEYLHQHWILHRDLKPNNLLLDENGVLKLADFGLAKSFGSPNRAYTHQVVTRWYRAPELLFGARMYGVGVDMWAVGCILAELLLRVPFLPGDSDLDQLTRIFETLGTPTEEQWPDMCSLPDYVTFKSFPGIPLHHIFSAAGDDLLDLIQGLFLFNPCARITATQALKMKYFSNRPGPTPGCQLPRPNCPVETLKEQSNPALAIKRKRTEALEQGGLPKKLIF
T6 sequence (P51946 whole entry partner): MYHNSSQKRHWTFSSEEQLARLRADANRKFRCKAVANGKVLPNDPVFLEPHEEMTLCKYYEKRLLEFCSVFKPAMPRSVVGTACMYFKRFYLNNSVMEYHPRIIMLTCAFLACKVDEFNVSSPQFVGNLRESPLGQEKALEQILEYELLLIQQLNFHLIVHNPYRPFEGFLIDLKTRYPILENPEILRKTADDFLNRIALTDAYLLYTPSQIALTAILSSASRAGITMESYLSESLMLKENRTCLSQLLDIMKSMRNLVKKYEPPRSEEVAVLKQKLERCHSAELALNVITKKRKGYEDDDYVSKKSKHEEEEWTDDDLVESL
T6 sequence (P51948 whole entry partner): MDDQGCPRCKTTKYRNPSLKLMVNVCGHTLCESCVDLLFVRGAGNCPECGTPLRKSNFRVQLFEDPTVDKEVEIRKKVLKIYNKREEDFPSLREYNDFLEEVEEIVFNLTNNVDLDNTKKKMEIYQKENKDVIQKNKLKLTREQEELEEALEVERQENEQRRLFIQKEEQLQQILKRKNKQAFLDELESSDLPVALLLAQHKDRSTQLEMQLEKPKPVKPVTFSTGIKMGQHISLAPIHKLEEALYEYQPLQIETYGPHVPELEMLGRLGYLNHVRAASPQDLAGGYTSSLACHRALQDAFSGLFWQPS
Protocol: as §1

T1 sequence (P11802 whole entry): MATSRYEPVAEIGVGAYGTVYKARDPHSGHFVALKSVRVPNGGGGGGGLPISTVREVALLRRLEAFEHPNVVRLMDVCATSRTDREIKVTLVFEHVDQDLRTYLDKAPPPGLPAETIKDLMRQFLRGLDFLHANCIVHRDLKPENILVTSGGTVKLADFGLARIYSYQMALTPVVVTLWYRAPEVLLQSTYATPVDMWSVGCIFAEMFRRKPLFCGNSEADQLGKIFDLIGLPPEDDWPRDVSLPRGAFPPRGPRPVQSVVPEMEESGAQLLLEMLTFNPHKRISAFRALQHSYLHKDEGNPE
T1 sequence (P24385 whole entry partner): as the sequence (P24385 whole entry partner) above

SMILES	IC50 [1]	IC50 [2]	IC50 [3]	IC50 [4]	IC50 [5]	IC50 [6]	CDK 7 inhibitory activity (IC50) [6]
Cc1c(C(=O)N(C)C)sc2cnc(Nc3ccc(N4CCNCC4)cn3)cc12 [Compound A3, N,N,3-trimethyl-5-((5-(piperazin-1-yl)pyridin-2-yl)amino)thieno[2,3-c]pyridine-2-carboxamide]	413 nM	420 nM	174 nM				
COC1(c2c(C(=O)N(C)C)sc3cnc(Nc4ccc(N5CCNCC5)cn4)cc23)CCCC1 [Compound A6, 3-(1-methoxycyclopentyl)-N,N-dimethyl-5-((5-(piperazin-1-yl)pyridin-2-yl)amino)thieno[2,3-c]pyridine-2-carboxamide]	3.7 nM	5.2 nM	2.1 nM	124 nM	501 nM		
O=C(c1sc2cnc(Nc3ccc(N4CCNCC4)cn3)cc2c1C1CCCC1)N1CCC1 [Compound A8, azetidin-1-yl(3-cyclopentyl-5-((5-(piperazin-1-yl)pyridin-2-yl)amino)thieno[2,3-c]pyridin-2-yl)methanone]	31 nM	552 nM	84 nM				
CN(C)C(=O)c1sc2cnc(Nc3cccc(N4CCOCC4)c3)cc2c1C1CCCC1 [Compound A10, 3-cyclopentyl-N,N-dimethyl-5-((3-morpholinophenyl)amino)thieno[2,3-c]pyridine-2-carboxamide]	262 nM	106 nM	168 nM				
CN(C)C(=O)c1sc2cnc(Nc3cccc(N4CCNCC4)c3)cc2c1C1CCCC1 [Compound A11, 3-cyclopentyl-N,N-dimethyl-5-((3-(piperazin-1-yl)phenyl)amino)thieno[2,3-c]pyridine-2-carboxamide]	160 nM	58 nM	50 nM				
CN(C)C(=O)c1sc2cnc(Nc3ccc(N4CCNCC4)cn3)cc2c1C1CCC(F)(F)C1 (stereo not shown) [Compound A12, 3-(3,3-difluorocyclopentyl)-N,N-dimethyl-5-((5-(piperazin-1-yl)pyridin-2-yl)amino)thieno[2,3-c]pyridine-2-carboxamide]	29 nM		20 nM	1110 nM	3680 nM		
CN(C)C(=O)c1sc2cnc(Nc3ccc(N4CCN(C(=O)C(O)CO)CC4)cn3)cc2c1C1CCCC1 (stereo not shown) [Compound A14, 3-cyclopentyl-5-((5-(4-(2,3-dihydroxypropanoyl)piperazin-1-yl)pyridin-2-yl)amino)-N,N-dimethylthieno[2,3-c]pyridine-2-carboxamide]	2.9 nM	4.2 nM	2.1 nM	67.7 nM	273 nM		
CN(C)C(=O)c1sc2cnc(Nc3ccc(N4CCNCC4)cn3)cc2c1C1CC1 [Compound A16, 3-cyclopropyl-N,N-dimethyl-5-((5-(piperazin-1-yl)pyridin-2-yl)amino)thieno[2,3-c]pyridine-2-carboxamide]	32.1 nM	24 nM	21 nM				
N#Cc1sc2cnc(Nc3ccc(N4CCOCC4)cc3)cc2c1C1CCCC1 [Compound B6, 3-cyclopentyl-5-((4-morpholinophenyl)amino)thieno[2,3-c]pyridine-2-carbonitrile]	222 nM	951 nM	19 nM	39.6 nM	1680 nM		inactive
N#Cc1sc2cnc(Nc3ccc(N4CCOCC4)nc3)cc2c1C1CCCC1 [Compound B7, 3-cyclopentyl-5-((6-morpholinopyridin-3-yl)amino)thieno[2,3-c]pyridine-2-carbonitrile]	61.9 nM	95.6 nM	19.4 nM	19.4 nM	324 nM		inactive
N#Cc1sc2cnc(Nc3cnc(N4CCOCC4)nc3)cc2c1C1CCCC1 [Compound B8, 3-cyclopentyl-5-((2-morpholinopyrimidin-5-yl)amino)thieno[2,3-c]pyridine-2-carbonitrile]	8660 nM	4590 nM	791 nM	824 nM	22000 nM		inactive

Second part, led by results:

IC50 [1]	IC50 [2]	IC50 [3]	IC50 [4]	IC50 [5]	IC50 [6]	SMILES	CDK 7 inhibitory activity (IC50) [6]
0.9 nM	0.6 nM		9.2 nM	8.7 nM	7.2 nM	N#Cc1sc2cnc(Nc3ccc(N4CCNCC4)cn3)cc2c1C1CCCC1 [Compound B1s, 3-cyclopentyl-5-((5-(piperazin-1-yl)pyridin-2-yl)amino)thieno[2,3-c]pyridine-2-carbonitrile hydrochloride]	
2.4 nM	6.6 nM	1 nM	13.3 nM	77.4 nM	53.9 nM	N#Cc1sc2cnc(Nc3ccc(N4CCNCC4)nc3)cc2c1C1CCCC1 [Compound B2, 3-cyclopentyl-5-((6-(piperazin-1-yl)pyridin-3-yl)amino)thieno[2,3-c]pyridine-2-carbonitrile]	
1.9 nM	1.8 nM	0.2 nM	5.2 nM	15.1 nM	31.4 nM	N#Cc1sc2cnc(Nc3ccc(N4CCNCC4)cc3)cc2c1C1CCCC1 [Compound B3, 3-cyclopentyl-5-((4-(piperazin-1-yl)phenyl)amino)thieno[2,3-c]pyridine-2-carbonitrile]	
1.9 nM	8.6 nM	0.7 nM	10.4 nM	31.5 nM	47 nM	CN1CCN(c2ccc(Nc3cc4c(C5CCCC5)c(C#N)sc4cn3)cc2)CC1 [Compound B4, 3-cyclopentyl-5-((4-(4-methylpiperazin-1-yl)phenyl)amino)thieno[2,3-c]pyridine-2-carbonitrile]	
0.7 nM	1 nM	0.3 nM	3.3 nM	9.1 nM	22.1 nM	CN1CCN(c2ccc(Nc3cc4c(C5CCCC5)c(C#N)sc4cn3)nc2)CC1 [Compound B5, 3-cyclopentyl-5-((5-(4-methylpiperazin-1-yl)pyridin-2-yl)amino)thieno[2,3-c]pyridine-2-carbonitrile]	
582 nM	96.5 nM	120 nM	70.8 nM	170 nM	872 nM	CN1CCN(c2cccc(Nc3cc4c(C5CCCC5)c(C#N)sc4cn3)c2)CC1 [Compound B9, 3-cyclopentyl-5-((3-(4-methylpiperazin-1-yl)phenyl)amino)thieno[2,3-c]pyridine-2-carbonitrile]	

— patent US20170152269A1, “FUSED BICYCLIC COMPOUNDS AND THEIR USE AS CDK INHIBITORS” (priority 2016, published 2017)
